Assay [1] relates to A549. In words: Antiproliferative activity against human A549 cells after 72 hrs by SRB assay. It counts as functional, cell-based. The note with it: A549, 72 h. (In general: In SRB staining, fixed cells bind dye roughly in proportion to their protein.)
Assay [2] relates to MDA-MB-231. Put plainly: Antiproliferative activity against human MDA-MB-231 cells after 72 hrs by SRB assay. The note with it: MDA-MB-231, 72 h. The assay is classed as functional, cell-based.

The source of these data is ChEMBL document CHEMBL4138197, “Design, synthesis and pharmacological evaluation of N-(5-chloro-2,4-dihydroxybenzoyl)-(R)-N-arylmethyl-1,2,3,4-tetrahydro-3-isoquinolinecarboxamides as potent Hsp90 inhibitors” (Eur J Med Chem, 2018).

Usually IC50 stands for the concentration that gives 50% inhibition. A higher IC50 goes with a need for much substance. As for `O=C(NCc1ccc(Cl)cc1Cl)[C@H]1Cc2ccccc2CN1C(=O)c1cc(Cl)c(O)cc1O`, the values for the IC50 in assay [1] and in assay [2] were 0.65 µM and 0.95 µM, respectively.
For `N#Cc1ccc(CNC(=O)[C@H]2Cc3ccccc3CN2C(=O)c2cc(Cl)c(O)cc2O)cc1` the same measures were 0.35 µM and 0.35 µM.
On to `COc1ccccc1CNC(=O)[C@H]1Cc2ccccc2CN1C(=O)c1cc(Cl)c(O)cc1O`, for which the IC50 was 1.16 µM in assay [1] and 0.95 µM in assay [2].
Taken in the same sequence, the figures for `COc1cc(CNC(=O)[C@H]2Cc3ccccc3CN2C(=O)c2cc(Cl)c(O)cc2O)cc(OC)c1OC` were 2.66 µM and 2.21 µM.
Regarding `COc1ccc(CNC(=O)[C@H]2Cc3ccccc3CN2C(=O)c2cc(Cl)c(O)cc2O)c(OC)c1`, the figures for the IC50 in assay [1] and in assay [2] were 1.41 µM and 1.16 µM, respectively.
`O=C(NCc1cccc2ccccc12)[C@H]1Cc2ccccc2CN1C(=O)c1cc(Cl)c(O)cc1O`: the IC50 in assay [1] turned out to be 2.76 µM; in assay [2] it was 2.41 µM.
`COc1cccc(CNC(=O)[C@H]2Cc3ccccc3CN2C(=O)c2cc(Cl)c(O)cc2O)c1`: the IC50 in assay [1] was determined as 1.56 µM; in assay [2] it was 1.81 µM.
For `COC1=C2C[C@@H](C)C[C@H](OC)[C@H](O)[C@@H](C)/C=C(\C)[C@H](OC(N)=O)[C@@H](OC)/C=C\C=C(/C)C(=O)NC(=CC1=O)C2=O` [GELDANAMYCIN] the same measures were 0.1 µM and 0.06 µM.
With `O=C(NCc1ccc2c(c1)OCO2)[C@H]1Cc2ccccc2CN1C(=O)c1cc(Cl)c(O)cc1O`, the IC50 in assay [1] is 0.65 µM; in assay [2], 0.7 µM.
With `NS(=O)(=O)c1ccc(CNC(=O)[C@H]2Cc3ccccc3CN2C(=O)c2cc(Cl)c(O)cc2O)cc1`, the IC50 in assay [1] and in assay [2] was above 10 µM throughout.
Take `CN(C)c1ccc(CNC(=O)[C@H]2Cc3ccccc3CN2C(=O)c2cc(Cl)c(O)cc2O)cc1`: the IC50 in assay [1] stood at 0.45 µM; in assay [2], 0.4 µM.
Consider `O=C(NCc1cccc(Cl)c1)[C@H]1Cc2ccccc2CN1C(=O)c1cc(Cl)c(O)cc1O`, for which the IC50 in assay [1] stood at 1.81 µM; in assay [2] it was 1.96 µM.
Taken in the same sequence, the figures for `N#Cc1ccc(CNC(=O)[C@H]2Cc3ccccc3CN2C(=O)c2cc(Cl)c(O)cc2O)cn1` were 2.73 µM and 2.08 µM.
`O=C(NCc1ccc(Cl)c(Cl)c1)[C@H]1Cc2ccccc2CN1C(=O)c1cc(Cl)c(O)cc1O`: the figures for the IC50 in assay [1] and in assay [2] were 1.46 µM and 1.61 µM, respectively.
With `N#Cc1ccc(CNC(=O)[C@H]2Cc3ccccc3CN2C(=O)c2cc(Cl)c(O)cc2O)nc1`, the IC50 in assay [1] was determined as 0.62 µM; in assay [2], 0.53 µM.
With `O=C(NCc1ccc(OC(F)(F)F)cc1)[C@H]1Cc2ccccc2CN1C(=O)c1cc(Cl)c(O)cc1O`, the IC50 in assay [1] stood at 2.16 µM; in assay [2], 2.26 µM.
In the case of `Cc1ccccc1CNC(=O)[C@H]1Cc2ccccc2CN1C(=O)c1cc(Cl)c(O)cc1O`, the IC50 in assay [1] came to 0.65 µM; in assay [2], 1.46 µM.
With `O=C(NCc1ccccc1)[C@H]1Cc2ccccc2CN1C(=O)c1cc(Cl)c(O)cc1O`, the IC50 turned out to be 1.67 µM in assay [1] and 1.12 µM in assay [2].
With `COc1cc(CNC(=O)[C@H]2Cc3ccccc3CN2C(=O)c2cc(Cl)c(O)cc2O)ccc1O`, the values for the IC50 in assay [1] and in assay [2] were 2.61 µM and 2.16 µM, respectively.
Regarding `O=C(NCc1cccc([N+](=O)[O-])c1)[C@H]1Cc2ccccc2CN1C(=O)c1cc(Cl)c(O)cc1O`, the IC50 was 0.65 µM in assay [1] and 0.8 µM in assay [2].
For `O=C(NCc1ccccn1)[C@H]1Cc2ccccc2CN1C(=O)c1cc(Cl)c(O)cc1O`, the IC50 in assay [1] amounted to 0.89 µM; in assay [2], 0.63 µM.
For `O=C(NCc1ccc([N+](=O)[O-])cc1)[C@H]1Cc2ccccc2CN1C(=O)c1cc(Cl)c(O)cc1O` the same measures were 0.54 µM and 0.4 µM.
Regarding `O=C(NCc1cccc(Cl)c1Cl)[C@H]1Cc2ccccc2CN1C(=O)c1cc(Cl)c(O)cc1O`, the IC50 was 1.11 µM in assay [1] and 2.11 µM in assay [2].
Take `O=C(NCc1ccc(Cl)cc1)[C@H]1Cc2ccccc2CN1C(=O)c1cc(Cl)c(O)cc1O`: the IC50 in assay [1] amounted to 0.75 µM; in assay [2], 0.78 µM.
Taken in the same sequence, the figures for `O=C(NCc1cccnc1)[C@H]1Cc2ccccc2CN1C(=O)c1cc(Cl)c(O)cc1O` were 1.51 µM and 0.82 µM.
With `Cc1cccc(CNC(=O)[C@H]2Cc3ccccc3CN2C(=O)c2cc(Cl)c(O)cc2O)c1`, the results for the IC50 in assay [1] and in assay [2] were 0.96 µM and 1.76 µM, respectively.
As to `CS(=O)(=O)c1ccc(CNC(=O)[C@H]2Cc3ccccc3CN2C(=O)c2cc(Cl)c(O)cc2O)cc1`, the IC50 in assay [1] was determined as 2.66 µM; in assay [2], 0.95 µM.
For `COc1ccc(CNC(=O)[C@H]2Cc3ccccc3CN2C(=O)c2cc(Cl)c(O)cc2O)cc1` the same measures were 1.06 µM and 0.9 µM.
Taken in the same sequence, the figures for `O=C(NCc1ccccc1Cl)[C@H]1Cc2ccccc2CN1C(=O)c1cc(Cl)c(O)cc1O` were 1.46 µM and 1.71 µM.
Taken in the same sequence, the figures for `COc1ccc(CNC(=O)[C@H]2Cc3ccccc3CN2C(=O)c2cc(Cl)c(O)cc2O)cc1OC` were 1.71 µM and 1.66 µM.
With `O=C(NCc1ccco1)[C@H]1Cc2ccccc2CN1C(=O)c1cc(Cl)c(O)cc1O`, the IC50 in assay [1] is 0.89 µM; in assay [2] it was 0.5 µM.
For `Cc1ccc(CNC(=O)[C@H]2Cc3ccccc3CN2C(=O)c2cc(Cl)c(O)cc2O)cc1` the same measures were 0.53 µM and 0.6 µM.
In the case of `CS(=O)(=O)c1cccc(CNC(=O)[C@H]2Cc3ccccc3CN2C(=O)c2cc(Cl)c(O)cc2O)c1`, the IC50 in assay [1] was above 10 µM; in assay [2], 3.87 µM.
Taken in the same sequence, the figures for `N#Cc1cccc(CNC(=O)[C@H]2Cc3ccccc3CN2C(=O)c2cc(Cl)c(O)cc2O)c1` were 0.5 µM and 0.65 µM.
On to `O=C(NCc1ccc2c(c1)CCO2)[C@H]1Cc2ccccc2CN1C(=O)c1cc(Cl)c(O)cc1O`, for which the IC50 in assay [1] was determined as 1.06 µM; in assay [2], 0.9 µM.
